Data from the supplement of paper PMC10307832.

Key:
Assay in all cases: relative viability (nuclei count vs DMSO), 5 days (fraction); higher = more cells survive
Dactolisib + OSI-027 = compound: Cn1c(=O)n(-c2ccc(C(C)(C)C#N)cc2)c2c3cc(-c4cnc5ccccc5c4)ccc3ncc21 [Dactolisib] + COc1cccc2cc(-c3nc([C@H]4CC[C@H](C(=O)O)CC4)n4ncnc(N)c34)[nH]c12 [OSI-027] (partner 0.5 µM)
In short: (§1)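 One day after seeding in 1536-well plates, lung cancer cell lines were dosed by pin tool. Dosing was either single-drug or a fixed anchor-drug dose plus five library-drug doses (not always all listed) in √10 steps. After 5 days, nuclei were stained in one fix-and-stain step and counted on 4× images, and relative viability is the nuclei count of treated wells over that of vehicle wells, given as the median of duplicate plates.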

Dactolisib + Vorinostat = compound: Cn1c(=O)n(-c2ccc(C(C)(C)C#N)cc2)c2c3cc(-c4cnc5ccccc5c4)ccc3ncc21 [Dactolisib] + O=C(CCCCCCC(=O)Nc1ccccc1)NO [Vorinostat] (partner 1 µM)
In short: as §1

Dactolisib + Linsitinib = compound: Cn1c(=O)n(-c2ccc(C(C)(C)C#N)cc2)c2c3cc(-c4cnc5ccccc5c4)ccc3ncc21 [Dactolisib] + C[C@]1(O)C[C@@H](c2nc(-c3ccc4ccc(-c5ccccc5)nc4c3)c3c(N)nccn32)C1 [Linsitinib] (partner 1 µM)
In short: as §1

Dactolisib + Alpelisib = compound: Cn1c(=O)n(-c2ccc(C(C)(C)C#N)cc2)c2c3cc(-c4cnc5ccccc5c4)ccc3ncc21 [Dactolisib] + Cc1nc(NC(=O)N2CCC[C@H]2C(N)=O)sc1-c1ccnc(C(C)(C)C(F)(F)F)c1 [Alpelisib] (partner 2 µM)
In short: as §1

Cell Line	relative viability (Dactolisib + OSI-027; first compound 0.002 µM)	relative viability (Dactolisib + OSI-027; first compound 0.006325 µM)	relative viability (Dactolisib + OSI-027; first compound 0.02 µM)	relative viability (Dactolisib + OSI-027; first compound 0.06325 µM)	relative viability (Dactolisib + OSI-027; first compound 0.2 µM)	relative viability (Dactolisib + Vorinostat; first compound 0.002 µM)	relative viability (Dactolisib + Vorinostat; first compound 0.006325 µM)	relative viability (Dactolisib + Vorinostat; first compound 0.02 µM)	relative viability (Dactolisib + Vorinostat; first compound 0.06325 µM)	relative viability (Dactolisib + Vorinostat; first compound 0.2 µM)	relative viability (Dactolisib + Linsitinib; first compound 0.002 µM)	relative viability (Dactolisib + Linsitinib; first compound 0.006325 µM)	relative viability (Dactolisib + Linsitinib; first compound 0.02 µM)	relative viability (Dactolisib + Linsitinib; first compound 0.06325 µM)	relative viability (Dactolisib + Linsitinib; first compound 0.2 µM)	relative viability (Dactolisib + Alpelisib; first compound 0.002 µM)	relative viability (Dactolisib + Alpelisib; first compound 0.006325 µM)	relative viability (Dactolisib + Alpelisib; first compound 0.02 µM)	relative viability (Dactolisib + Alpelisib; first compound 0.06325 µM)	relative viability (Dactolisib + Alpelisib; first compound 0.2 µM)
NCI-H1755	0.821	0.772	0.8	0.683	0.542	0.758	0.77	0.71	0.619	0.477	0.983	0.971	0.989	0.763	0.622	0.944	0.898	0.872	0.655	0.372
HCC-78	0.439	0.411	0.376	0.396	0.332	0.33	0.431	0.415	0.367	0.303	0.476	0.457	0.383	0.223	0.207	0.358	0.33	0.282	0.247	0.198
LOU-NH91	0.701	0.716	0.741	0.732	0.519	0.903	0.898	0.784	0.524	0.529	0.712	0.888	0.837	0.588	0.527	0.623	0.665	0.669	0.496	0.471
NCI-H3122	0.903	0.976	0.948	0.739	0.373	1.03	0.854	1.09	1.04	0.671	0.982	0.993	0.989	0.671	0.53	0.792	0.729	0.652	0.486	0.36
HCC-827	0.8	0.774	0.787	0.826	0.759	0.966	0.934	0.785	0.498	0.82	1.02	0.919	1.03	0.911	0.699	0.964	1.01	0.943	0.468	0.359
SW 1573	0.702	0.579	0.5	0.199	0.167	0.571	0.588	0.627	0.243	0.25	0.824	0.606	0.525	0.297	0.242	0.94	0.784	0.682	0.322	0.33
NCI-H1975	0.676	0.676	0.591	0.297	0.244	0.788	0.622	0.575	0.429	0.266	1.01	0.847	0.551	0.32	0.256	0.612	0.549	0.396	0.238	0.201
